Experimental data taken from the NIST ThermoML archive (doi:10.1021/je700428f).
Numbers after ± are expanded uncertainties.

Assay: xn = mol fraction of the nth substance listed
Conditions: 101 kPa, Liquid; for viscosity: Capillary tube (Ostwald / Ubbelohde) method

COC(C)(C)C [2-methoxy-2-methylpropane] + CCCCCCCCCC
Conditions	mass density [kg/m3]	viscosity [mPa·s]
273.15 K, x1 = 0.1016	–	1.2 ± 0.011
273.15 K, x1 = 0.1019	745.52 ± 0.54	–
273.15 K, x1 = 0.2002	–	1.093 ± 0.011
273.15 K, x1 = 0.2041	746.17 ± 0.53	–
273.15 K, x1 = 0.3003	–	1.004 ± 0.011
273.15 K, x1 = 0.3077	747.06 ± 0.53	–
273.15 K, x1 = 0.3999	748 ± 0.53	–
273.15 K, x1 = 0.4013	–	0.909 ± 0.01
273.15 K, x1 = 0.4992	–	0.822 ± 0.01
273.15 K, x1 = 0.5005	749.23 ± 0.52	–
273.15 K, x1 = 0.6005	–	0.741 ± 0.01
273.15 K, x1 = 0.6066	750.84 ± 0.52	–
273.15 K, x1 = 0.6866	752.32 ± 0.52	–
273.15 K, x1 = 0.7	–	0.659 ± 0.009
273.15 K, x1 = 0.7973	754.83 ± 0.52	–
273.15 K, x1 = 0.8005	–	0.584 ± 0.009
273.15 K, x1 = 0.8996	–	0.513 ± 0.009
273.15 K, x1 = 0.8999	757.82 ± 0.52	–
273.15 K, x1 = 1	761.34 ± 0.5	–
278.15 K, x1 = 0.1016	–	1.092 ± 0.011
278.15 K, x1 = 0.1019	741.7 ± 0.54	–
278.15 K, x1 = 0.2002	–	1.002 ± 0.011
278.15 K, x1 = 0.2041	742.28 ± 0.54	–
278.15 K, x1 = 0.3003	–	0.924 ± 0.01
278.15 K, x1 = 0.3077	743.09 ± 0.54	–
278.15 K, x1 = 0.3999	743.94 ± 0.53	–
278.15 K, x1 = 0.4013	–	0.841 ± 0.01
278.15 K, x1 = 0.4992	–	0.765 ± 0.01
278.15 K, x1 = 0.5005	745.06 ± 0.53	–
278.15 K, x1 = 0.6005	–	0.689 ± 0.01
278.15 K, x1 = 0.6066	746.53 ± 0.53	–
278.15 K, x1 = 0.6866	747.9 ± 0.53	–
278.15 K, x1 = 0.7	–	0.615 ± 0.009
278.15 K, x1 = 0.7973	750.21 ± 0.53	–
278.15 K, x1 = 0.8005	–	0.547 ± 0.009
278.15 K, x1 = 0.8996	–	0.481 ± 0.009
278.15 K, x1 = 0.8999	752.99 ± 0.52	–
278.15 K, x1 = 1	756.14 ± 0.51	–
283.15 K, x1 = 0.1016	–	1.001 ± 0.011
283.15 K, x1 = 0.1019	737.88 ± 0.55	–
283.15 K, x1 = 0.2002	–	0.923 ± 0.01
283.15 K, x1 = 0.2041	738.38 ± 0.55	–
283.15 K, x1 = 0.3003	–	0.855 ± 0.01
283.15 K, x1 = 0.3077	739.1 ± 0.54	–
283.15 K, x1 = 0.3999	739.86 ± 0.54	–
283.15 K, x1 = 0.4013	–	0.779 ± 0.01
283.15 K, x1 = 0.4992	–	0.713 ± 0.009
283.15 K, x1 = 0.5005	740.87 ± 0.54	–
283.15 K, x1 = 0.6005	–	0.643 ± 0.009
283.15 K, x1 = 0.6066	742.2 ± 0.53	–
283.15 K, x1 = 0.6866	743.44 ± 0.53	–
283.15 K, x1 = 0.7	–	0.575 ± 0.009
283.15 K, x1 = 0.7973	745.55 ± 0.53	–
283.15 K, x1 = 0.8005	–	0.513 ± 0.009
283.15 K, x1 = 0.8996	–	0.452 ± 0.009
283.15 K, x1 = 0.8999	748.12 ± 0.53	–
283.15 K, x1 = 1	751.02 ± 0.51	–
288.15 K, x1 = 0.1016	–	0.923 ± 0.01
288.15 K, x1 = 0.1019	734.04 ± 0.55	–
288.15 K, x1 = 0.2002	–	0.856 ± 0.01
288.15 K, x1 = 0.2041	734.47 ± 0.55	–
288.15 K, x1 = 0.3003	–	0.793 ± 0.01
288.15 K, x1 = 0.3077	735.1 ± 0.55	–
288.15 K, x1 = 0.3999	735.77 ± 0.55	–
288.15 K, x1 = 0.4013	–	0.726 ± 0.01
288.15 K, x1 = 0.4992	–	0.664 ± 0.009
288.15 K, x1 = 0.5005	736.66 ± 0.54	–
288.15 K, x1 = 0.6005	–	0.601 ± 0.009
288.15 K, x1 = 0.6066	737.84 ± 0.54	–
288.15 K, x1 = 0.6866	738.97 ± 0.54	–
288.15 K, x1 = 0.7	–	0.54 ± 0.009
288.15 K, x1 = 0.7973	740.88 ± 0.54	–
288.15 K, x1 = 0.8005	–	0.481 ± 0.009
288.15 K, x1 = 0.8996	–	0.426 ± 0.009
288.15 K, x1 = 0.8999	743.23 ± 0.54	–
288.15 K, x1 = 1	745.85 ± 0.52	–
293.15 K, x1 = 0.1016	–	0.855 ± 0.01
293.15 K, x1 = 0.1019	730.2 ± 0.56	–
293.15 K, x1 = 0.2002	–	0.795 ± 0.01
293.15 K, x1 = 0.2041	730.55 ± 0.56	–
293.15 K, x1 = 0.3003	–	0.743 ± 0.009
293.15 K, x1 = 0.3077	731.09 ± 0.55	–
293.15 K, x1 = 0.3999	731.66 ± 0.55	–
293.15 K, x1 = 0.4013	–	0.678 ± 0.009
293.15 K, x1 = 0.4992	–	0.622 ± 0.009
293.15 K, x1 = 0.5005	732.44 ± 0.55	–
293.15 K, x1 = 0.6005	–	0.563 ± 0.009
293.15 K, x1 = 0.6066	733.47 ± 0.55	–
293.15 K, x1 = 0.6866	734.47 ± 0.55	–
293.15 K, x1 = 0.7	–	0.507 ± 0.009
293.15 K, x1 = 0.7973	736.17 ± 0.54	–
293.15 K, x1 = 0.8005	–	0.454 ± 0.009
293.15 K, x1 = 0.8996	–	0.402 ± 0.009
293.15 K, x1 = 0.8999	738.3 ± 0.54	–
293.15 K, x1 = 1	740.65 ± 0.53	–
298.15 K, x1 = 0.1016	–	0.797 ± 0.01
298.15 K, x1 = 0.1019	726.35 ± 0.57	–
298.15 K, x1 = 0.2002	–	0.742 ± 0.009
298.15 K, x1 = 0.2041	726.62 ± 0.56	–
298.15 K, x1 = 0.3003	–	0.692 ± 0.009
298.15 K, x1 = 0.3077	727.06 ± 0.56	–
298.15 K, x1 = 0.3999	727.53 ± 0.56	–
298.15 K, x1 = 0.4013	–	0.635 ± 0.009
298.15 K, x1 = 0.4992	–	0.584 ± 0.009
298.15 K, x1 = 0.5005	728.19 ± 0.56	–
298.15 K, x1 = 0.6005	–	0.531 ± 0.009
298.15 K, x1 = 0.6066	729.07 ± 0.55	–
298.15 K, x1 = 0.6866	729.94 ± 0.55	–
298.15 K, x1 = 0.7	–	0.479 ± 0.009
298.15 K, x1 = 0.7973	731.44 ± 0.55	–
298.15 K, x1 = 0.8005	–	0.428 ± 0.009
298.15 K, x1 = 0.8996	–	0.379 ± 0.009
298.15 K, x1 = 0.8999	733.33 ± 0.55	–
298.15 K, x1 = 1	735.4 ± 0.54	–
303.15 K, x1 = 0.1016	–	0.744 ± 0.009
303.15 K, x1 = 0.1019	722.46 ± 0.57	–
303.15 K, x1 = 0.2002	–	0.695 ± 0.009
303.15 K, x1 = 0.2041	722.68 ± 0.57	–
303.15 K, x1 = 0.3003	–	0.65 ± 0.009
303.15 K, x1 = 0.3077	723.02 ± 0.57	–
303.15 K, x1 = 0.3999	723.38 ± 0.56	–
303.15 K, x1 = 0.4013	–	0.597 ± 0.009
303.15 K, x1 = 0.4992	–	0.55 ± 0.009
303.15 K, x1 = 0.5005	723.93 ± 0.56	–
303.15 K, x1 = 0.6005	–	0.5 ± 0.009
303.15 K, x1 = 0.6066	724.65 ± 0.56	–
303.15 K, x1 = 0.6866	725.39 ± 0.56	–
303.15 K, x1 = 0.7	–	0.452 ± 0.009
303.15 K, x1 = 0.7973	726.66 ± 0.56	–
303.15 K, x1 = 0.8005	–	0.405 ± 0.009
303.15 K, x1 = 0.8996	–	0.358 ± 0.009
303.15 K, x1 = 0.8999	728.32 ± 0.55	–
303.15 K, x1 = 1	730.1 ± 0.55	–
308.15 K, x1 = 0.1016	–	0.698 ± 0.009
308.15 K, x1 = 0.1019	718.59 ± 0.58	–
308.15 K, x1 = 0.2002	–	0.653 ± 0.009
308.15 K, x1 = 0.2041	718.72 ± 0.58	–
308.15 K, x1 = 0.3003	–	0.606 ± 0.009
308.15 K, x1 = 0.3077	718.96 ± 0.57	–
308.15 K, x1 = 0.3999	719.22 ± 0.57	–
308.15 K, x1 = 0.4013	–	0.562 ± 0.009
308.15 K, x1 = 0.4992	–	0.519 ± 0.009
308.15 K, x1 = 0.6005	–	0.474 ± 0.009
308.15 K, x1 = 0.7	–	0.428 ± 0.009
308.15 K, x1 = 0.8005	–	0.382 ± 0.009
